Here are results for 1 compound from patent US10639345B2, “Compositions for preserving photoreceptor cells, retinal pigment epithelial cells, or visual function” (Massachusetts Eye and Ear Infirmary, priority 2010, dated 2020).

Assay [1] concerns photoreceptors. In words: In vivo PI labeling of photoreceptors after retinal detachment in RIP-3−/− retinas. Also noted: species or system RIP-3−/− mice. The note with it: day 3 after retinal detachment. The procedure: In vivo propidium iodide (PI) staining was performed by injecting 5 μl of PI (50 μg/ml) into the subretinal space three days after retinal detachment. After two hours, the eyes were enucleated and 10 μm thick cryosections were cut, air-dried, and fixed in 100% ethanol. DAPI was used to counterstain the nuclei. The center of the detached retina was photographed by fluorescence microscope, and the number of PI-positive cells in ONL was analyzed by ImageJ software.
FIG. 8C-D show PI staining (FIG. 8C) and quantification of PI-positive photoreceptors (FIG. 8D) on day 3 after retinal detachment in retina treated with vehicle, Z-VAD or Nec-1 (a Nec-1 of Formula I-C) and Z-VAD in RIP-3−/− retina (n=5-6; C and D). *, P<0.05; **, P<0.01. Scale bar, 100 μm.

For a further assay, the system named is AIF. The assay is described as follows: AIF nuclear translocation (AIF/TUNEL double staining) after retinal detachment. It is filed as in vivo. The note with it: three days after retinal detachment. On the procedure: Immunohistochemistry (IHC) was performed as previously reported (Murakami Y et al. (2008) AM J PATHOL 173:1326-1338). Rabbit anti-AIF antibody (1:100; Cell Signaling Technology, Danvers, Mass.) was used as the primary antibody. The specimens were imaged by confocal microscopy using the Leica HCX APOL40× lens.
(§1) Immunofluorescence was performed as previously reported (Hisatomi et al. (2008) J CLIN INVEST 118:2025-2038. The enucleated eyes were frozen in OCT compound (Sakura Finetechnical Co., Tokyo, Japan). Five μm-thick sections were cut, air dried and fixed in cold acetone for 10 minutes. Rabbit anti-AIF antibody (1:100; Cell Signaling Technology, Danvers, Mass.) was used as the primary antibody and incubated at 4° C. overnight. A non-immune serum was used as a negative control. Alexa Fluor 488-conjugated goat anti-rabbit IgG was used as the secondary antibody and incubated at room temperature for one hour. The specimens were imaged by confocal microscopy using the Leica HCX APOL40× lens.
Apoptosis-inducing factor (AIF) is a caspase-independent inducer of cell death, which is released from the mitochondria and translocates into the nuclei during cell death (Susin S A et al. (1999) NATURE 397:441-446). […]

In a further assay the test system is Fas-L. The assay is described as follows: Fas ligand expression after retinal detachment (real-time PCR). It is filed as in vivo. The note with it: compared to vehicle treatment. The procedure: Total RNA extraction and reverse transcription were performed as previously reported (Nakazawa T et al. (2006) MOL VIS 12:867-878; Hisatomi T et al. (2008). J CLIN INVEST 118:2025-2038). A real-time PCR assay was performed with Prism 7700 Sequence Detection System (Applied Biosystems, Foster City, Calif.). TaqMan Gene Expression assays were also used to check the expression of MCP-1 (Rn00580555_m1), TNF-α (Rn99999017_m1), and Fas-L (Rn00563754_m1). For relative comparison of each gene, the Ct value of real-time PCR data was analyzed with the ΔΔCt method and normalized by an endogenous control (18S ribosomal RNA).
TNF-α and Fas-L are potent inducer of programmed necrosis as well as apoptosis (Degterev A (2005) NAT CHEM BIOL 1:112-119). The effectiveness of a TNF-α blockade after retinal detachment was measured. […] However, other factors may also contribute to photoreceptor death, as the effect of TNF-α blockade was not as effective as that of Nec-1+Z-VAD treatment. Further, Fas ligand expression increased in Z-VAD-treated retina after retinal detachment compared to vehicle treatment (FIG. 12C), and may play a role in promoting necrotic photoreceptor death in Z-VAD-treated eyes.
Background: In qPCR the cycle at which signal appears reflects the starting amount.

The subject of assay [2] is CD11b-positive macrophage/microglia. In words: CD11b immunofluorescence after retinal detachment in WT mice. It is filed as in vivo. The procedure:
as §1, with “Rat anti-CD11b (1:50; BD Biosciences, San Diego, Calif.)” for “Rabbit anti-AIF antibody (1:100; Cell Signaling Technology, Danvers, Mass.)”, “nonimmune” for “non-immune”, “594-conjugated” for “488-conjugated”, “anti-rat” for “anti-rabbit”, “IgG (Invitrogen, Carlsbad, Calif.)” for “IgG”
FIG. 11C-D show immunofluorescence for CD11b (FIG. 11C) and quantification of CD11b-positive macrophage/microglia (FIG. 11D) in WT and RIP-3−/− retina after retinal detachment.

Assay [3] concerns photoreceptors. In words: Poly I:C-induced dry AMD model, ONL thickness. It counts as in vivo, mice. From the text: In this example, the mechanism of photoreceptor cell death in dry AMD was investigated using a polyinosinic:polycytidylic acid (Poly I:C)-induced dry AMD model (Yang et al. (2009) NEJM 359(14):1456-63). Poly I:C is a synthetic double-stranded RNA (dsRNA) analog that activates toll-like receptor 3 (TLR3) signaling (FIG. 20A). Furthermore, dsRNA are known to exist in the drusen of human AMD patients. As depicted in FIG. 20A, activation of the TLR3 signaling results in activation of RIP-1 kinase pathway. […] In the experiments described herein, 2-3 μl of Poly I:C (1 mg/ml) was injected into the subretinal space of the eye (e.g., approximately 2-3 μg of Poly I:C was administered to the eye) to induce AMD.
The thickness of the outer nuclear layer (ONL) was also determined in WT or RIP-3−/− mice at 14 days following treatment with poly I:C. Sections were randomly selected from either WT or RIP-3−/− mice following poly I:C treatment and the retina was photographed. The ONL thickness was measured in each section by masked observers.
To determine the effect of Nec-1 and a pan-caspase inhibitor in the treatment of AMD, TUNEL assay was performed to assess photoreceptor cell death in the poly I:C induced AMD model. […] The thickness of ONL was also measured.

Where a SMILES comes first, the peptide text is derived from it. The star is where a group is joined. Cbz = O=C(OCc1ccccc1)*; CH2F = FC*

Turning to `COC(=O)CC(NC(=O)C(C)NC(=O)C(NC(=O)OCc1ccccc1)C(C)C)C(=O)CF` (stereo not drawn) [Z-VAD, Benzyloxycarbonyl-Val-Ala-Asp(OMe)-fluoromethylketone] (Cbz-Val-Ala-Asp(OMe)-CH2F; configuration not given here), the “number of photoreceptors with disrupted plasma membrane (in vivo PI-labeling)” value in the assay on photoreceptors [1] is “not increased”. Moreover, in the assay on AIF, the “AIF/TUNEL-double positive cells (AIF nuclear translocation)” value is listed as 1021.9±233.9 cells/mm^2. Besides, the Fas ligand expression result with Fas-L is on record as “increased”. Also, the “infiltration of CD11b-positive cells (immunofluorescence)” value in assay [2] is “significantly increased infiltration”. Moreover, in the assay on photoreceptors [3], the ONL thickness result was “minimal effect”.
